This is an account of results in publication PMC4016869, “In Search of the Active Metabolites of an Anticancer Piperazinedione, TW01003, in Rats” (BioMed Research International, 2014).

Data set [1] in a line: Pharmacokinetics of TW01003 and TW01003 sulfate after i.v. administration of TW01003 in Wistar rats. The data set is classed as in vivo, rat. Conditions: for Cmax / MRT inf / Vd / clearance / half-life: male, rat, iv; for Cmax / MRT inf / Vd / clearance / half-life / AUMCINF / AUCINF / AUCall: plasma, i.v. TW01003 2.0 mg/kg; for Cmax / MRT inf / Vd / clearance / half-life / AUMCINF: n = 6, mean ± SD; for AUCINF: n = 6, time 0 to infinite; for AUCINF / AUCall: mean ± SD; for AUCall: n = 6, time 0 to last sampling time. The protocol: Single-dose TW01003 in a solution (1 mL) containing a 9 : 1 (v/v) ratio of vehicle V : 10% Na2CO3(aq) was used for animal studies in pig or in male Wistar rats. For metabolic studies, the TW01003 test solution was administered intravenously (7 mg/kg, n = 1) to the tail vein or orally (36 mg/kg, n = 1) by a feeding tube. For pharmacokinetic studies, the test solution was administered intravenously to the tail vein of Wistar rats (2.0 mg/kg, 1 mL, n = 6). The rats were put under a heating lamp to maintain body temperatures at 37°C throughout the experiment. All procedures involving the use of animals were approved by the Institutional Animal Care and Use Committee of Taipei Medical University.
Blood samples (0.5 mL) were withdrawn from the carotid artery of rats at time intervals of 5, 15, 30, 45, 60, 90, 120, 180, and 240 min. Heparin sodium (25 IU/mL in 0.3 mL of saline) was added, and the blood samples were centrifuged (5,585 g) at 4°C for 8 min. The plasma was frozen immediately and kept at −78°C until analysis. The plasma sample (150 μL) was mixed with a sulfatase solution (200 IU/mL, 50 μL) at 37°C for 2 h. The plasma sample (150 μL) mixed with 50 μL of a buffer solution (pH 5.0) was used for the control group. The internal standard solution was then added, and the solution was centrifuged (5,585 g) for 10 min. The supernatant was concentrated to dryness with nitrogen gas. The D5W vehicle (200 μL) was then added to the residue, and the solution was subjected to HPLC analysis.
We established the plasma concentration-time profile. The area under the plasma concentration-time profile (AUC) and other pharmacokinetic parameters (peak concentration: C max; time to reach C max: T max; area under the moment curve: AUMC; volume of distribution: V D) were calculated using the log-linear trapezoidal rule. […] Terminal half-life (t 1/2) was compartment model-independently estimated. Data analysis was performed using Microsoft Excel, and data were represented as mean ± standard deviation (SD) for n experiments. Treatment differences were evaluated by the paired t-test.

Data set [2] is described as follows: Metabolic study of TW01003 in a rat after i.v. administration (plasma, enzymatic treatment, HPLC). The data set is classed as in vivo. The protocol:
Single-dose TW01003 in a solution (1 mL) containing a 9 : 1 (v/v) ratio of vehicle V : 10% Na2CO3(aq) was used for animal studies in pig or in male Wistar rats. For metabolic studies, the TW01003 test solution was administered intravenously (7 mg/kg, n = 1) to the tail vein or orally (36 mg/kg, n = 1) by a feeding tube. For pharmacokinetic studies, the test solution was administered intravenously to the tail vein of Wistar rats (2.0 mg/kg, 1 mL, n = 6). The rats were put under a heating lamp to maintain body temperatures at 37°C throughout the experiment. All procedures involving the use of animals were approved by the Institutional Animal Care and Use Committee of Taipei Medical University. Blood samples (0.5 mL) were withdrawn from the carotid artery of rats at time intervals of 5, 15, 30, 45, 60, 90, 120, 180, and 240 min. Heparin sodium (25 IU/mL in 0.3 mL of saline) was added, and the blood samples were centrifuged (5,585 g) at 4°C for 8 min. The plasma was frozen immediately and kept at −78°C until analysis. The plasma sample (150 μL) was mixed with a sulfatase solution (200 IU/mL, 50 μL) at 37°C for 2 h. The plasma sample (150 μL) mixed with 50 μL of a buffer solution (pH 5.0) was used for the control group. The internal standard solution was then added, and the solution was centrifuged (5,585 g) for 10 min. The supernatant was concentrated to dryness with nitrogen gas. […]

The nature of data set [3]: Identification of TW01003 metabolites in pig urine after i.v. administration (HPLC, sulfatase treatment). It is filed as in vivo. Conditions: i.v. TW01003 200 mg, urine 60 min after dosing. From the text:
Crossbred 3-4-month-old pigs weighing 40–50 kg, obtained from the Animal Technology Institute, Taiwan (Miaoli, Taiwan), were used in a preliminary metabolic study for establishing the HPLC analytical method for the identification of TW01003 and its metabolites. The phase II conjugate TW01003 sulfate was first isolated from pig urine as an authentic sample for analysis. Male Wistar rats (200–250 g) for pharmacokinetic studies were purchased from the Laboratory Animal Center of National Taiwan University (Taipei, Taiwan). The animals were pathogen free and allowed to acclimate to the environmentally controlled quarters (24 ± 1°C and 12 : 12 h light-dark cycle) for at least 5 days before the experiments. Animal studies were conducted in accordance with the Guide for the Care and Use of Laboratory Animals.
In order to establish a feasible analytical method for the identification of TW01003 metabolites in a biological system, a test solution containing 200 mg of TW01003 was first injected into a 40–50 kg pig. Fresh urine (1 mL) was collected 60 min after dosing, filtered through a 0.22 μm Millipore filter, and subjected to HPLC analysis. Typical HPLC chromatograms of urine sample of untreated pig (Figure 2(a)), urine samples upon i.v. dosing of TW01003 (Figure 2(b)), and urine samples after sulfatase treatment (Figure 2(c)) are depicted.

Data set [4] concerns 60 human disease-oriented cancer cell panel. The arrangement: method as in PMID 23567646. Conditions: cited from earlier work.
The subject of data set [5] is vascular endothelial growth factor- (VEGF-) induced angiogenesis. Briefly: Matrigel with VEGF-induced angiogenesis after oral treatment in mice. The data set is classed as in vivo. Conditions: oral TW01003 3 mg/kg, unpublished data.
Data set [6] is described as follows: Preliminary pharmacokinetic study, oral administration to rats. The data set is classed as in vivo. Conditions: unpublished data.

Counter-ions that a name gives are not always drawn. Where only a bound is given, the exact number is not on record here.

`O=c1[nH]/c(=C\c2ccc(OS(=O)(=O)O)cn2)c(=O)[nH]/c1=C\c1ccccc1` [TW01003 sulfate]: in data set [1] (i.v. TW01003, n = 6), the “clearance rate relative to TW01003” value is recorded as 2.3 times lower, the “residence time (MRTINF) relative to TW01003” value is “seven times longer”, the “systemic exposure (AUCINF) relative to TW01003” value was determined as 2.5 times higher and the “volume of distribution relative to TW01003” value was “three times higher”. Besides, in data set [1], the Cmax (in general, the highest concentration seen after dosing) was 1310 ± 640 ng/mL; the mean residence time (MRT inf) (as a rule, a mean duration of stay, worked out from the concentration-time curve) came to 1.44 ± 0.33 h; the Vd (as a rule, the apparent volume that relates the amount in the body to the concentration in plasma or blood) amounted to 4.43 ± 1.52 L/kg; the clearance (usually the volume of plasma or blood freed of the substance per unit of time) is 51.3 mL/min/kg. For the same molecule, in data set [1], the half-life – broadly, the time in which the quantity being followed falls by half – was 1.31 ± 0.22 h; the AUMCINF is listed as 1.01 ± 0.36 h∗h∗μg/mL; the AUCINF was 0.71 ± 0.25 h∗μg/mL; the AUCall was found to be 0.52 ± 0.20 h∗μg/mL. Further, the “metabolite in rat plasma after i.v. administration” value in data set [2] (Wistar rat, i.v. TW01003 6.7 mg/kg, n = 1) is on record as “major metabolite”. Also, the “metabolite found in pig urine” value in data set [3] is listed as “major metabolite”.

Take `O=c1[nH]/c(=C/c2ccc(O)cn2)c(=O)[nH]/c1=C/c1ccccc1` [TW01003, (3E,6E)-3-Benzylidene-6-[(5-hydroxypyridin-2-yl)methylene]piperazine-2,5-dione]: in data set [4], the “antitumor activity in words” value is recorded as “broad spectrum of antitumor activities”. In data set [1], the Cmax was 2200 ± 250 ng/mL, the MRT inf came to 0.2 ± 0.06 h, the distribution volume (Vd) was 1.41 ± 0.41 L/kg and the clearance is 118 mL/min/kg. In data set [1], this molecule had a half-life of 0.76 ± 0.14 h, an AUMCINF of 0.06 ± 0.02 h∗h∗μg/mL, an AUCINF of 0.29 ± 0.04 h∗μg/mL and an AUCall of 0.28 ± 0.04 h∗μg/mL. In addition, in data set [5], the “hemoglobin count of the matrigel reduced to” value is listed as under 1%. Further, in data set [2] (rat, i.v. 6.7 mg/kg or oral 36.0 mg/kg, regardless of administration method), the clearance in words entry is reported as “cleared fairly rapidly”. The molecule also returned an oral fraction absorbed in data set [6] of 1.72%.
